Experiments:
DIGSA = test: Postemergence foliar-applied greenhouse weed control, DIGSA; assay type: in vivo, Digitaria sanguinalis (L.) Scop.
Text: Seeds or nutlets of the desired test plant species were planted in a soil matrix prepared by mixing a loam or sandy loam soil (e.g., 28.6 percent silt, 18.8 percent clay, and 52.6 percent sand, with a pH of about 5.8 and an organic matter content of about 1.8 percent) and calcareous grit in an 80 to 20 ratio. The soil matrix was contained in plastic pots with a volume of 1 quart and a surface area of 83.6 square centimeters (cm^2). When required to ensure good germination and healthy plants, a fungicide treatment and/or other chemical or physical treatment was applied. The plants were grown for 8-22 days in a greenhouse with an approximate 14 h photoperiod which was maintained at about 29° C. during the day and 26° C. during the night. Nutrients (Peters Excel® 15-5-15 5-Ca 2-Mg and iron chelate) were applied in the irrigation solution as needed and water was added on a regular basis. Supplemental lighting was provided with overhead metal halide 1000-Watt lamps as necessary. The plants were employed for testing when they reached the first through fourth true leaf stage.
Treatments consisted of the acid or esters of 4-amino-3-chloro-5-fluoro-6-(4-chloro-2-fluoro-3-methoxy-phenyl) pyridine-2-carboxylic acid (Compound A), each formulated as an SC (suspension concentrate), and various herbicidal components alone and in combination. Forms of compound A were applied on an acid equivalent basis.
Other herbicidal components were applied on an active ingredient basis and included auxin transport inhibiting (ATI) herbicides chlorflurenol (technical material), chlorflurenol-methyl (technical material), diflufenzopyr (technical material), diflufenzopyr sodium (technical material), flurenol-methyl (technical material) and naptalam (technical material).
Treatment requirements were calculated based upon the rates being tested, the concentration of active ingredient or acid equivalent in the formulation, and a 12 mL application volume at a rate of 187 L/ha.
For treatments comprised of formulated and technical compounds, weighed amounts of the technical materials were placed individually in 25 mL glass vials and dissolved in a volume of 97:3 v/v acetone/DMSO to obtain 12× stock solutions, and measured amounts of the formulated compounds were placed individually in 25 mL glass vials and diluted in a volume of 1.5% (v/v) crop oil concentrate or water to obtain 12× stock solutions. […] Application solutions were prepared by adding an appropriate amount of each stock solution (e.g., 1 mL) and diluted to the appropriate final concentrations with the addition of an appropriate amount of an aqueous mixture of 1.5% (v/v) crop oil concentrate so that the final spray solutions contained 1.25% (v/v) crop oil concentrate. When required, additional water and/or 97:3 v/v acetone/DMSO was added to individual application solutions so that the final acetone and DMSO concentrations of the application solutions being compared were 8.1% and 0.25%, respectively.
All stock solutions and applications solutions were visually inspected for compound compatibility prior to application. Spray solutions were applied to the plant material with an overhead Mandel track sprayer equipped with an 8002E nozzle calibrated to deliver 187 L/ha over an application area of 0.503 m^2 at a spray height of 18 to 20 inches (46 to 50 cm) above average plant canopy height. Control plants were sprayed in the same manner with the solvent blank.
The treated plants and control plants were placed in a greenhouse as described above and watered by sub-irrigation to prevent wash-off of the test compounds. After approximately 3 weeks, the condition of the test plants as compared with that of the untreated plants was determined visually and scored on a scale of 0 to 100 percent where 0 corresponds to no injury or growth inhibition and 100 corresponds to complete kill. […]

FIMMI = test: In-water applied (paddy) greenhouse weed control, FIMMI; assay type: in vivo, Fimbristylis miliacea (L.) Vahl; conditions: 19 DAA
Description: Weed seeds or nutlets of the desired test plant species were planted in puddled soil (mud) prepared by mixing a shredded, non-sterilized mineral soil (50.5 percent silt, 25.5 percent clay, and 24 percent sand, with a pH of about 7.6 and an organic matter content of about 2.9 percent) and water at a 1:1 volumetric ratio. The prepared mud was dispensed in 365 mL aliquots into 16-ounce (oz.) non-perforated plastic pots with a surface area of 86.59 square centimeters (cm^2) leaving a headspace of 3 centimeters (cm) in each pot. Mud was allowed to dry overnight prior to planting or transplanting. Rice seeds were planted in Sun Gro MetroMix® 306 planting mixture, which typically has a pH of 6.0 to 6.8 and an organic matter content of about 30 percent, in plastic plug trays. Seedlings at the second or third leaf stage of growth were transplanted into 840 mL of mud contained in 32-oz. non-perforated plastic pots with a surface area of 86.59 cm^2 4 days prior to herbicide application. The paddy was created by filling the headspace of the pots with 2.5 to 3 cm of water. When required to ensure good germination and healthy plants, a fungicide treatment and/or other chemical or physical treatment was applied. The plants were grown for 4-22 days in a greenhouse with an approximate 14 h photoperiod which was maintained at about 29′C during the day and 26° C. during the night. Nutrients were added as Osmocote® (19:6:12, N:P:K+minor nutrients) at 2 g per 16-oz. pot and 4 g per 960-mL 32-oz. pot. Water was added on a regular basis to maintain the paddy flood, and supplemental lighting was provided with overhead metal halide 1000-Watt lamps as necessary. The plants were employed for testing when they reached the second or third true leaf stage.
Treatments consisted of the acid or esters of 4-amino-3-chloro-5-fluoro-6-(4-chloro-2-fluoro-3-methoxy-phenyl)pyridine-2-carboxylic acid (compound A) each formulated as an SC and various herbicidal components alone and in combination. Forms of compound A were applied on an acid equivalent basis.
Other herbicidal components were applied on an active ingredient basis and included auxin transport inhibiting (ATI) herbicides chlorflurenol-methyl (technical material), chlorflurenol (technical material), diflufenzopyr (technical material), dilfufenzopyr sodium (technical material), flurenol-methyl (technical material,) and naptalam (technical material).
Treatment requirements for each compound or herbicidal component were calculated based upon the rates being tested, the concentration of active ingredient or acid equivalent in the formulation, an application volume of 2 mL per component per pot, and an application area of 86.59 cm^2 per pot.
For formulated compounds, a measured amount was placed in an individual 100 or 200 mL glass vial and was dissolved in a volume of 1.25% (v/v) Agri-Dex® crop oil concentrate to obtain application solutions.
For technical grade compounds, a weighed amount was placed in an individual 100 to 200 mL glass vial and was dissolved in a volume of acetone to obtain concentrated stock solutions. […] The concentrated stock solutions obtained were diluted with an equivalent volume of an aqueous mixture containing 2.5% (v/v) crop oil concentrate so that the final application solutions contained 1.25% (v/v) crop oil concentrate.
Applications were made by injecting with a pipetter appropriate amounts of the application solutions, individually and sequentially, into the aqueous layer of the paddy. Control plants were treated in the same manner with the solvent blank. Applications were made so that all treated plant material received the same concentrations of acetone and crop oil concentrate.
The treated plants and control plants were placed in a greenhouse as described above and water was added as needed to maintain a paddy flood. […]

SMILES: COc1c(Cl)ccc(-c2nc(C(=O)OCc3ccccc3)c(Cl)c(N)c2F)c1F [Compound A Benzyl Ester]
- Visual Weed Control (%) Obs (DIGSA; 20 DAA, 4.38 gae/ha): 40%
- Visual Weed Control (%) Obs (DIGSA; 20 DAA, 8.75 gae/ha): 40%
- Visual Weed Control (%) Obs (DIGSA; 21 DAA, 17.5 gae/ha): 30%
- Visual Weed Control (%) Obs (FIMMI; 8 gae/ha): 0%
- Visual Weed Control (%) Obs (FIMMI; 16 gae/ha): 0%
- Visual Weed Control (%) Obs (FIMMI; 32 gae/ha): 85%

Source: patent US20140031217A1, “HERBICIDAL COMPOSITIONS COMPRISING 4-AMINO-3-CHLORO-5-FLUORO-6-(4-CHLORO-2-FLUORO-3-METHOXYPHENYL)PYRIDINE-2-CARBOXYLIC ACID OR A DERIVATIVE THEREOF AND AUXIN TRANSPORT INHIBITORS” (DOW AGROSCIENCES LLC, priority 2012, published 2014)
